How the values were obtained:
[1] = test system: cerebral edema; settings: rats; second administration; cited from earlier work
[2] = test system: patients with mixed dementia and patients with Alzheimer's disease; test: Study of pharmacological activity: half-year neurological study (MMSE, visual and aural-speech memory, clock drawing test, Schulte Table); assay type: in vivo, human
Text: The subjects under the study have been 25 patients with mixed dementia and 12 patients with Alzheimer's disease. The average age of the patients is 70±3 years. Dementia has been diagnosed in accordance with the dementia criteria under ICD-10 [International statistic classification of diseases and problems relating to health. Tenth revision (ICD-10). V.1 (Part 1). Geneva: WHO, 1995; p. 315, 510-1]. Dimentia severity has been assessed according to Clinical Dementia Rating Scale—CDR [Hughes C P, Berg L, Danziger W L et al. A new clinical scale for the staging of dementia. Brit J Psychiatry 1982; 140: 566-72]. In the group of patients with mixed dementia it is 1.2±0.3, and in the group with Alzheimer's disease—1.1±0.36. All the patients have been subdivided into two groups. The first group has received […] of memantine once a day. The second group received capsules according to Example 4. A complex neurological study has been conducted with the patients for half a year, the study included brief evaluation of mental status (MMSE), a test for visual and aural-speech memory under the dementia scale, the clock drawing test as well as the test for attention—Schulte Table. The outcome has been processed with the use of the statistical package for social sciences (SPSS), Version 10.0.

[3] = test system: dopamine concentration in the forebrain regions; settings: cited from earlier work
[4] = cited from earlier work

| Compound | reduction of the volume of cerebral edema [1] | increase of clock drawing test ([2]; in 6 months) | increase of total score of the mental status evaluation (MMSE) ([2]; in 6 months, patients with mixed dementia or Alzheimer's disease) | lowering of Schulte test ([2]; in 6 months, test for attention) | increase of visual memory ([2]; in 6 months, test under the dementia scale) | patients with positive therapeutic effect ([2]; patients with Alzheimer's disease) | patients with positive therapeutic effect ([2]; patients with mixed dementia) | side effects ([2]; patients, half-year study) | dopamine concentration ([3]; after a single dosing) | rise of dopamine concentration in the forebrain regions ([3]; during prolonged administration) | time to concentration peak in the brain ([4]; after a single dosing) | half-life ([4]; in vivo) |
| --- | --- | --- | --- | --- | --- | --- | --- | --- | --- | --- | --- | --- |
| COc1ccc2[nH]cc(CCNC(C)=O)c2c1 [melatonin, N-acetyl-5-methoxytriptamine] | 2 times | – | – | – | – | – | – | – | – | – | – | – |
| CC12CC3CC(C)(C1)CC(N)(C3)C2 [memantine, 1-amino-3,5-dimethyladamantan] | – | 0.2±0.1 | 1.5±0.3 | 20.5±3.6 | 0.5±0.2 | 25% | 86% | increase in the intracranial pressure was observed | remains unchanged | ≥ 10 times | one | approximately 100 hours |

Source: patent US20150157604A1, “PHARMACEUTICAL COMPOSITION FOR THE PROPHYLAXIS AND TREATMENT OF PSYCHOLOGICAL, BEHAVIORAL AND COGNITIVE DISORDERS” (LTD << VALENTA-INTELLEKT >>, priority 2012, published 2015)
